Laboratory results: paper PMC8198181, “Evaluation of Substituted N-Phenylpiperazine Analogs as D3 vs. D2 Dopamine Receptor Subtype Selective Ligands” (Molecules, 2021)
“And” between values parts separate entries of the source, which are not always exact repeats. Equal entries are not always repeated. “Also recorded” adds a separate entry of the source. Where two headings read alike, the source gives them in different places.

Legend:
[1] = biological target: T1, D3 dopamine receptor (Homo sapiens, UniProt P35462); settings: for D2:D3 Selectivity: ratio of D2 and D3 Ki values (Table 1)
Procedure: Competitive radioligand binding techniques were used to determine the Ki values of ligands at human D2 and D3 dopamine receptors expressed in stably transfected HEK cells (Table 1).
The final radioligand concentration was approximately equal to the Kd value for the binding of the radioligand. […] For each competition curve, triplicates were performed using two concentrations of inhibitor per decade over five orders of magnitude.
The competition curves were modeled for a single binding site using Bs = Bo − ((Bo + L)/(IC50 + L)) where Bs is the amount of ligand bound to receptor and Bo is the amount of ligand bound to receptor in the absence of competitive inhibitor. L is the concentration of the competitive inhibitor. […] The values for Bs and Bo were constrained using experimentally derived values. The IC50 values were converted to equilibrium dissociation constants (Ki) [50, 51]. Mean Ki values ± S.E.M. are reported for at least three independent experiments.

[2] = biological target: T2, human 5-HT1A receptor (Homo sapiens, UniProt P08908); test: 5-HT1A receptor binding ([3H]8-hydroxy-DPAT displacement, CHO-K1 membranes); settings: for 5-HT1A receptor affinity/displacement in words: radioligand displacement assessment at 91 nM; for inhibition at 0.091 µM: single point displacement of [3H]-8-hydroxy-DPAT, 91 nM test compound, CHO-K1, ± S.E.M., n ≥ 3
T2 construct: expressed in transfected cells; host or cells: CHO-K1
T2 sequence (P08908 1-422): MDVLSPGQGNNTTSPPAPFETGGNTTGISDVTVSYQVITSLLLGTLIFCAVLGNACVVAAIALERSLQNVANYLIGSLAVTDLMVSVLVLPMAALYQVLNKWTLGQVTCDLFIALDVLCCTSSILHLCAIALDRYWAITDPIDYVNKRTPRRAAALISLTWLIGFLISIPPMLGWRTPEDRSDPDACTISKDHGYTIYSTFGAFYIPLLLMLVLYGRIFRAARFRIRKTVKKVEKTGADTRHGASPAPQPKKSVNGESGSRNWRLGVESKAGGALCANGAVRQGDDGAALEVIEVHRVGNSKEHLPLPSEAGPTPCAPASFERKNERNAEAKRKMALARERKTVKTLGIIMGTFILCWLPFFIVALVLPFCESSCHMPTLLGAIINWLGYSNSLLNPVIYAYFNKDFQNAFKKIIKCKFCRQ
Procedure: Because the 5-HT1A receptor is a commonly observed off-site binding site for benzamide N-phenylpiperazine ligands, compounds were simultaneously screened for binding of our compounds at the human 5-HT1A receptor expressed in CHO-K1 cells, using the radioligand [^3H]-8-hydroxy-DPAT (8-OH-DPAT) (Table 2). Based upon the analysis of the displacement assay shown in Table 2, the orthosteric compounds 3c–f appeared to bind with low affinity at human 5-HT1A receptors.
10 μg of membranes from CHO-K1 cells expressing the human 5-HT1A receptor were suspended in 50 mM Tris-HCl, 10 mM MgSO4, 0.5 mM EDTA, and 0.1% (w/v) ascorbic acid, pH 7.4 and test ligands (91 nM for single point radioligand displacement assay and 1 nM to 1 μM for full competition assay) were incubated with 0.25 nM [^3H]8-hydroxy-DPAT (PerkinElmer, Boston, MA, USA) for 60 min at room temperature. The nonspecific binding was determined using 10 μM metergoline (Sigma, St. Louis, MO, USA). After incubation, the bound ligands were filtered using an M-24 Brandel filtration system (Brandel, Gaithersburg, MD, USA), collected on glass fiber papers (Whatman grade 934-AH, GE Healthcare Bio-Sciences, Pittsburgh, PA, USA), and the radioactivity was quantitated using a MicroBeta2 Microplate scintillation counter 2450 (PerkinElmer, Boston, MA, USA).

[3] = biological target: T1, D3 dopamine receptor; test: β-arrestin binding assay (DiscoverX PathHunter, DRD3-U2OS cells); type: cell-based; set-up: host or cells: U2OS (PathHunter eXpress DRD3-U2OS); settings: human D3, test compound at 10x Ki, normalized to quinpirole
Procedure: (§1) Quinpirole was used as a reference prototypic full agonist and haloperidol was used as a reference prototypic antagonist.
The β-arrestin binding assay was performed using a DiscoverX Pathhunter® kit according to the manufacturer’s instructions. PathHunter® eXpress β-Arrestin GPCR cells are engineered to co-express the ProLink™ (PK) tagged GPCR and the Enzyme Acceptor (EA) tagged β-Arrestin. Activation of the GPCR-PK induces β-Arrestin-EA recruitment, forcing complementation of the two β-galactosidase enzyme fragments (EA and PK). The resulting functional enzyme hydrolyzes substrate to generate a chemiluminescent signal. DRD3-U2OS cells were seeded according to kit instructions into white plastic 96-well plates (provided with the kit) 48 h prior to the assay in a volume of 100 μL/well using the Cell Plating Reagent (CPR) provided. Vehicle or test drug, diluted in CPR, was added to the designated wells and incubated for 90 min at 37 °C. Working detection solution (a component provided with the kit) was added to the wells and incubated for 1 h in the dark at room temperature. As discussed for the cyclase assay, an Enspire Alpha 2390 Multilabel Reader/Luminometer was used to detect the luminescent signal with haloperidol and quinpirole used as reference antagonist and full agonist, respectively.
(§2) Figure 3 Comparison of the Efficacy of Phenylthiophene Analogs for Adenylyl Cyclase Inhibition and β-Arrestin Binding at Human D3 Dopamine Receptors. […] Values were normalized to reference full agonist quinpirole (10,000 nM).

[4] = biological target: T1, D3 dopamine receptor; test: Forskolin-dependent adenylyl cyclase inhibition assay (cAMP-Glo, HEK cells); type: cell-based; set-up: expressed in transfected cells; host or cells: HEK293; settings: human D3, test compound at 10x Ki, normalized to quinpirole 10,000 nM
Procedure: as §1
The forskolin-dependent adenylyl cyclase inhibition assay was performed using a cAMP-Glo Assay kit (Promega). For this assay cAMP stimulates protein kinase A (PKA) activity, which leads to a decrease in ATP levels and a decrease in the luciferase-coupled production of light. This is a 96 well plate assay using HEK cells stably transfected to express the human D3 dopamine receptor (10,000 cells/well/0.1 mL complete media). After removing media and rinsing with phosphate buffered saline, cells were incubated with 20 μL of forskolin (6000 nM) and test compound or vehicle. […] After cells, test compound (or vehicle) and forskolin (or vehicle) were incubated for 15 min, cells were lysed using 20 μL lysis buffer (provided with the kit) and mixed for 15 min at room temperature. A cAMP Detection Solution (40 μL) was added to each well, gently mixed for 60 s and incubated at room temperature for 20 min. The Kinase-Glo Solution was added (40 μL) to terminate the PKA reaction. The reaction mixture was gently mixed for 60 s and then incubated at room temperature for 10 min. The remaining ATP was detected via a luciferase reaction. The plates were read using an Enspire Alpha 2390 Multilabel Reader/Luminometer. Haloperidol (200 nM) and quinpirole (10,000 nM) was used as a prototypic reference antagonist and full agonist, respectively.
as §2

[5] = biological target: human D3 dopamine receptor; settings: read-out: Ki D3 (hD3), previously published; Figure 1 and text; cited from earlier work
[6] = biological target: T1, D3 dopamine receptor; set-up: method as in PMID 15582454; settings: cited from earlier work

T1 sequence (P35462 whole entry): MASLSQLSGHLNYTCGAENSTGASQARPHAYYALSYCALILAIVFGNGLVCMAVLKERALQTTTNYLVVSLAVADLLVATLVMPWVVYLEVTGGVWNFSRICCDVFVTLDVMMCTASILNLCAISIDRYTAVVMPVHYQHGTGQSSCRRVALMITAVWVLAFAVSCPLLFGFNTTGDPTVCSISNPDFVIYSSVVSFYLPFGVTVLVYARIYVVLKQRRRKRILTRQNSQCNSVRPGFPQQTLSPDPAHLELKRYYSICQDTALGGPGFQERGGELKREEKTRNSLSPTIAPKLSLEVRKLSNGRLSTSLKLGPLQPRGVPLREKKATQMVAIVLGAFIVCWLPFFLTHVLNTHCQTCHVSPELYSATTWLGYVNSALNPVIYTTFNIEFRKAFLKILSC

Row | Structure (SMILES) | Ki [1] | D2:D3 Selectivity [1] | 5-HT1A receptor affinity/displacement in words [2] | inhibition at 0.091 µM [2] | further results
1 | O=C(NCCCCN1CCN(c2ccc(F)cc2OCCF)CC1)c1ccc(-c2cscn2)cc1 [Compound 7f] | 4.8 ± 0.28 nM | 72.9 | substantial affinity | 37.1 ± 24.4% | 
2 | N#Cc1ccc(F)c(N2CCN(CCCCNC(=O)c3ccc(-c4ccsc4)cc3)CC2)c1 [Compound 6d] | 15.5 ± 1.3 nM | 290 |  | 2.5 ± 3.5% | efficacy in β-arrestin binding assay [3]: antagonists; efficacy in adenylyl cyclase inhibition assay [4]: antagonists
3 | O=C(NCCCCN1CCN(c2ccccc2F)CC1)c1ccc(-c2cscn2)cc1 [Compound 7a] | 2.5 ± 0.22 nM | 190 | substantial affinity; also recorded: increased affinity | 65.8 ± 5% | Ki ([2]; full competition curve, [3H]-8-hydroxy-DPAT, at least three experiments, read-out: Ki at 5-HT1A receptor): 14.3 ± 7.1 nM
4 | O=C(NCCCCN1CCN(c2cccc(F)c2)CC1)c1ccc(-c2ccsc2)cc1 [Compound 6b] | 7.9 ± 1.4 nM | 296 | substantial affinity | 74.7 ± 1.9% | efficacy in β-arrestin binding assay [3]: weak partial agonists; efficacy in adenylyl cyclase inhibition assay [4]: weak partial agonists
5 | CCCCN1CCN(c2ccc(F)cc2)CC1 [Compound 3c] | 1180 ± 240 nM | 2.6 |  | 5.1 ± 11.2% | 
6 | O=C(NCCCCN1CCN(c2ccc(C(F)(F)F)cc2F)CC1)c1ccc(-c2ccsc2)cc1 [Compound 6e] | 43.3 ± 9.2 nM | >1800 |  | 6.1 ± 6.8% | 
7 | O=C(NCCCCN1CCN(c2cccc(Cl)c2Cl)CC1)c1ccc(-c2ccccn2)cc1 [PG 01037] |  |  |  |  | Ki [5]: 0.7 nM
8 | CCCCN1CCN(c2ccccc2F)CC1 [Compound 3a] | 96.2 ± 16.9 nM | 4.0 | partially displace; also recorded: moderate affinity | 20.3 ± 16.2% | Ki [2]: 67.8 ± 4.6 nM
9 | O=C(NCCCCN1CCN(c2ccc(F)cc2OCCF)CC1)c1ccc(-c2ccsc2)cc1 [Compound 6f] | 6.1 ± 0.2 nM | 67.4 |  | 16.9 ± 24.4% | 
10 | O=C(NCCCCN1CCN(c2cccc(F)c2)CC1)c1ccc(-c2cscn2)cc1 [Compound 7b] | 24 ± 5.5 nM | 165 | substantial affinity | 74.1 ± 5.3% | 
11 | O=C(NCCCCN1CCN(c2ccc(F)cc2)CC1)c1ccc(-c2cscn2)cc1 [Compound 7c] | 28.6 ± 2.1 nM | 140 |  | 12.2 ± 3.1% | 
12 | O=C(NCCCCN1CCN(c2ccc(C(F)(F)F)cc2F)CC1)c1ccc(-c2cscn2)cc1 [Compound 7e] | 30.9 ± 2.6 nM |  |  | 7.6 ± 6.5% | efficacy in β-arrestin binding assay [3]: antagonists; efficacy in adenylyl cyclase inhibition assay [4]: antagonists
13 | O=C(NCCCCN1CCN(c2ccc(F)cc2)CC1)c1ccc(-c2ccsc2)cc1 [Compound 6c] | 12.4 ± 1.6 nM | 579 |  | -7.7 ± 23.5% | efficacy in β-arrestin binding assay [3]: very weak partial agonist/antagonist; efficacy in adenylyl cyclase inhibition assay [4]: weak partial agonist
14 | CCCCN1CCN(c2ccc(C(F)(F)F)cc2F)CC1 [Compound 3e] | 1410 ± 59.1 nM | 5.3 |  | -11.6 ± 15.4% | 
15 | CCCCN1CCN(c2cccc(F)c2)CC1 [Compound 3b] | 1000 ± 118 nM | 2.5 | partially displace | 36.1 ± 2.1% | 
16 | O=C(NCCCCN1CCN(c2cccc(Cl)c2Cl)CC1)c1ccc2c(c1)Cc1ccccc1-2 [NGB 2904] |  |  |  |  | Ki [5]: 2 nM
17 | O=C(NCCCCN1CCN(c2ccccc2OCCF)CC1)c1ccc(-c2ccsc2)cc1 [LS-3-134] |  |  |  |  | % of maximum efficacy, adenylyl cyclase inhibition assay [6]: 35% and 34.4 ± 1.7%
18 | CCCCN1CCN(c2ccc(F)cc2OCCF)CC1 [Compound 3f] | 351 ± 42.1 nM | 1.0 |  | 1.7 ± 21.7% | 
19 | N#Cc1ccc(F)c(N2CCN(CCCCNC(=O)c3ccc(-c4cscn4)cc3)CC2)c1 [Compound 7d] | 28.1 ± 0.8 nM | 274 |  | -5.6 ± 18.3% | 
20 | CCCCN1CCN(c2cc(C#N)ccc2F)CC1 [Compound 3d] | 726 ± 101 nM | 7.5 |  | -18 ± 11.1% | 
